Measurements taken from ChEMBL document CHEMBL1629466, “Synthesis and biological activity of some antitumor active derivatives from glycyrrhetinic acid” (Eur J Med Chem, 2010).
Active and inactive are the calls of the source. The rule behind the calls is not given here.

Key:
Assay type in all cases: functional, cell-based
[1] = Cytotoxicity against human Lipo cells after 96 hrs by sulforhodamine B assay
DLD-1 = assay: Cytotoxicity against human DLD1 cells after 96 hrs by sulforhodamine B assay
FaDu = assay: Cytotoxicity against human FADU cells after 96 hrs by sulforhodamine B assay
MCF7 = assay: Cytotoxicity against human MCF7 cells after 96 hrs by sulforhodamine B assay
HCT-116 = assay: Cytotoxicity against human HCT116 cells after 96 hrs by sulforhodamine B assay
[2] = Cytotoxicity against human 518A2 cells after 96 hrs by sulforhodamine B assay
A2780 [3] = assay: Cytotoxicity against human A2780 cells after 96 hrs by sulforhodamine B assay
A549 = assay: Cytotoxicity against human A549 cells after 96 hrs by sulforhodamine B assay
HT-29 = assay: Cytotoxicity against human HT-29 cells after 96 hrs by sulforhodamine B assay
SW480 = assay: Cytotoxicity against human SW480 cells after 96 hrs by sulforhodamine B assay
8505C = assay: Cytotoxicity against human 8505C cells after 96 hrs by sulforhodamine B assay
SW-1736 = assay: Cytotoxicity against human SW1736 cells after 96 hrs by sulforhodamine B assay
HCT-8 = assay: Cytotoxicity against human HCT8 cells after 96 hrs by sulforhodamine B assay
[4] = Cytotoxicity against human A253 cells after 96 hrs by sulforhodamine B assay
A-431 [5] = assay: Induction of apoptosis in human A431 cells assessed as DNA fragmentation at IC90 concentration after 24 hrs by gel electrophoresis analysis
A-431 [6] = assay: Induction of apoptosis in human A431 cells at IC90 concentration after 24 hrs by trypan blue exclusion assay
A2780 [7] = assay: Induction of apoptosis in human A2780 cells assessed as DNA fragmentation at IC90 concentration after 24 hrs by gel electrophoresis analysis
A2780 [8] = assay: Induction of apoptosis in human A2780 cells at IC90 concentration after 24 hrs by trypan blue exclusion assay

Compound | IC50 [1] [µmol] | IC50 (DLD-1) [µmol] | IC50 (FaDu) [µmol] | IC50 (MCF7) [µmol] | IC50 (HCT-116) [µmol] | IC50 [2] [µmol] | IC50 (A2780 [3]) [µmol] | IC50 (A549) [µmol] | IC50 (HT-29) [µmol] | IC50 (SW480) [µmol] | IC50 (8505C) [µmol] | IC50 (SW-1736) [µmol] | IC50 (HCT-8) [µmol] | IC50 [4] [µmol] | Activity (A-431 [5]) | Activity (A-431 [6]) | Activity (A2780 [7]) | Activity (A2780 [8])
COC(=O)[C@@]1(C)CC[C@]2(C)CC[C@]3(C)C(=CC(=O)[C@@H]4[C@@]5(C)CC[C@H](OC(=O)CNCCCCCCCCCN)C(C)(C)[C@@H]5CC[C@]43C)[C@@H]2C1 | 5.48 | 4.5 | 5.54 | 3.33 | 3.44 | 3.12 | 3.3 | 2.23 | 2.06 | 5.74 | 6.18 | 3.3 | 2.42 | 4.65 | – | – | – | –
COC(=O)[C@@]1(C)CC[C@]2(C)CC[C@]3(C)C(=CC(=O)[C@@H]4[C@@]5(C)CC[C@H](OC(=O)CCl)C(C)(C)[C@@H]5CC[C@]43C)[C@@H]2C1 | 14.55 | 6.13 | 12.44 | 6.69 | 5.13 | 5.24 | 6.01 | 8.39 | 5.34 | 8.92 | 15.86 | 3.14 | 3.97 | 6.19 | – | – | – | –
COC(=O)[C@@]1(C)CC[C@]2(C)CC[C@]3(C)C(=CC(=O)[C@@H]4[C@@]5(C)CC[C@H](OC(=O)CNCCCCCCCCCCN)C(C)(C)[C@@H]5CC[C@]43C)[C@@H]2C1 | 6.93 | 5.53 | 5.65 | 2.68 | 3.86 | 4.33 | 3.63 | 5.16 | 2.73 | 4.73 | 7.6 | 3.73 | 4.07 | 5.48 | – | – | – | –
COC(=O)[C@@]1(C)CC[C@]2(C)CC[C@]3(C)C(=CC(=O)[C@@H]4[C@@]5(C)CC[C@H](OC(=O)CNCCCCCCN)C(C)(C)[C@@H]5CC[C@]43C)[C@@H]2C1 | 1.59 | 0.91 | 1.78 | 1.17 | 1.17 | 1.09 | 1.36 | 1.59 | 0.59 | 2.25 | 1.68 | 1.61 | 0.62 | 1.12 | Active | Active | Active | Active
CC1(C)[C@@H](O)CC[C@]2(C)[C@H]3C(=O)C=C4[C@@H]5C[C@@](C)(C(=O)O)CC[C@]5(C)CC[C@@]4(C)[C@]3(C)CC[C@@H]12 [ENOXOLONE] | 81.44 | 81.21 | 84.55 | 84.7 | 78.83 | 83.92 | 74.57 | 82.76 | 80.09 | 86.8 | 86.5 | 76.93 | 78.85 | 80.78 | – | – | – | –
COC(=O)[C@@]1(C)CC[C@]2(C)CC[C@]3(C)C(=CC(=O)[C@@H]4[C@@]5(C)CC[C@H](OC(=O)CNCCCCCCCN)C(C)(C)[C@@H]5CC[C@]43C)[C@@H]2C1 | 1.44 | 1.25 | 2.2 | 0.98 | 1.7 | 1.27 | 1.14 | 2.21 | 0.86 | 2.24 | 2.13 | 2.24 | 0.89 | 1.74 | – | – | – | –
COC(=O)[C@@]1(C)CC[C@]2(C)CC[C@]3(C)C(=CC(=O)[C@@H]4[C@@]5(C)CC[C@H](OC(=O)CNCCCN)C(C)(C)[C@@H]5CC[C@]43C)[C@@H]2C1 | 3.89 | 4.39 | 5.57 | 3.55 | 4.3 | 3.79 | 4.39 | 5.15 | 2.9 | 3.68 | 3.37 | 6.05 | 2.37 | 3.64 | – | – | – | –
COC(=O)[C@@]1(C)CC[C@]2(C)CC[C@]3(C)C(=CC(=O)[C@@H]4[C@@]5(C)CC[C@H](OC(=O)CNCCCCCN)C(C)(C)[C@@H]5CC[C@]43C)[C@@H]2C1 | 1.93 | 2.4 | 3.3 | 1.79 | 2.19 | 2.02 | 2 | 2.52 | 1.28 | 1.91 | 1.78 | 2.69 | 1.38 | 2.27 | – | – | – | –
CC1(C)[C@@H](OC(=O)CCl)CC[C@]2(C)[C@H]3C(=O)C=C4[C@@H]5C[C@@](C)(C(=O)O)CC[C@]5(C)CC[C@@]4(C)[C@]3(C)CC[C@@H]12 | 25.39 | 17.36 | 23.56 | 25.11 | 14.41 | 25.43 | 23.77 | 24.8 | 16.91 | 25.91 | 26.08 | 16.42 | 13.39 | 25.54 | – | – | – | –
COC(=O)[C@@]1(C)CC[C@]2(C)CC[C@]3(C)C(=CC(=O)[C@@H]4[C@@]5(C)CC[C@H](O)C(C)(C)[C@@H]5CC[C@]43C)[C@@H]2C1 | 20.47 | 26.12 | 23.41 | 22.14 | 22.1 | 27.54 | 25.54 | 23.5 | 27.54 | 16.08 | 26.07 | 34.87 | 24.36 | 19.42 | – | – | – | –
COC(=O)[C@@]1(C)CC[C@]2(C)CC[C@]3(C)C(=CC(=O)[C@@H]4[C@@]5(C)CC[C@H](OC(=O)CNCCCCN)C(C)(C)[C@@H]5CC[C@]43C)[C@@H]2C1 | 2.57 | 2.66 | 3.51 | 2.45 | 2.41 | 2.55 | 2.43 | 3.31 | 1.69 | 2.54 | 2.12 | 3.3 | 1.51 | 2.56 | – | – | – | –
COC(=O)[C@@]1(C)CC[C@]2(C)CC[C@]3(C)C(=CC(=O)[C@@H]4[C@@]5(C)CC[C@H](OC(=O)CNCCCCCCCCN)C(C)(C)[C@@H]5CC[C@]43C)[C@@H]2C1 | 4.36 | 3.96 | 4.26 | 3.89 | 3.53 | 3.49 | 2.8 | 4.08 | 2.76 | 3.93 | 3.35 | 4.09 | 2.92 | 3.01 | – | – | – | –
